{"source": "patent US20100197789A1", "about": "“ANTI-OBESITY AGENT AND USE THEREOF” (National University Corporation Nagoya University, priority 2006, published 2010)", "assay_type_in_all_cases": "in vivo, mouse", "key": {"db/^+m mice": {"tested_on": "db/^+m mice", "experiment": "Food intake amount and body weight, 5 week-continuous oral administration, non-obese db/+m mice", "settings": "SKF97541 10×10^−6 M, 3-APPA 100×10^−6 M in drinking water", "procedure": "5 week-old male C57BL/KsJ-db/^+m mice (db/^+m mice: body weight 19 to 23 g, Japan SLC, Inc.) were purchased and individually fed in tip cages. To the db/^+m mice, normal pellet diet (CE-2) was administered under free water intake and free food intake. A body weight and a food intake amount over 24 hours were measured every day from the start of feeding. On day 3 after the start of feeding, blood was taken from an orbit after 6 hour-fasting and a blood glucose level and a blood insulin concentration were measured. The db/^+m mice were divided into two groups (10 mice per each group) so that a body weight, a 24 hour-food intake amount, a blood glucose level, and a blood insulin concentration were equal, and defined to be a control group and a baclofen treated group. After division into the groups, from day 5 after the start of feeding, (±)-baclofen was dissolved in drinking water and 5 week-continuous oral administration was started in the baclofen treated group. (±)-baclofen was dissolved in drinking water at a concentration of 2.7 mg/dl used in the high concentration treated group in the experiment of db/db mice. A food intake amount and a body weight of the db/^+m mice were measured over time, and a rectal temperature was measured 5 weeks after the start of the administration. Blood was taken after the 5-week administration of (±)-baclofen, and the db/^+m mice were sacrificed by cervical luxation.\n5 week-old male C57BL/KsJ-db/db mice (db/db mice: body weight 19 to 25 g, Japan SLC, Inc.) were purchased and individually fed in tip cages. Normal pellet diet (CE-2) was administered to the db/db mice under free water intake and free food intake. A body weight and a food intake amount over 24 hours were measured every day from the start of feeding. On day 3 after the start of feeding, blood was taken from an orbit after 6 hour-fasting and a blood glucose level and a blood insulin concentration were measured. The db/db mice were divided into three groups (10 mice per each group) so that a body weight, a 24 hour-food intake amount, a blood glucose level, and a blood insulin concentration were equal and defined to be a control group, an SKF97541 treated group and a 3-APPA treated group. SKF97541 and 3-APPA were dissolved in drinking water at respective concentrations of 10×10^−6 M and 100×10^−6 M, and continuously orally administered for 5 weeks, and a food intake amount and a body weight were measured over time during the administration period. SKF97541 (10×10^−6 M) or 3-APPA (100×10^−6M) was dissolved in drinking water and orally administered also to db/^+m mice, and a food intake amount and a body weight were measured over time in the same manner."}, "DIO mice [1]": {"tested_on": "DIO mice", "experiment": "Food intake amount and body weight, 5 week-continuous oral administration, diet-induced obese (DIO) mice", "settings": "(±)-baclofen 5 mg/kg/day, SKF97541 0.3 mg/kg/day, 3-APPA 5 mg/kg/day; for body weight increase / food intake amount: DIO mice (high fat diet), oral in drinking water 5 weeks; for time after start of administration from which body weight increase suppression was significant / time after start of administration from which food intake suppression was significant: DIO mice, continued until 5 weeks", "procedure": "(§1) 5 week-old male C57BL/6N mice (body weight 17 to 20 g, CLEA Japan, Inc.) were purchased and individually fed in tip cages. To the mice, normal pellet diet (CE-2) was administered under free water intake and free food intake. A body weight and a food intake amount over 24 hours were measured every day from the start of feeding. On day 3 after the start of feeding, blood was taken from an orbit after 6 hour-fasting and a blood glucose level and a blood insulin concentration were measured. The mice were divided into a control group and a baclofen treated group (10 mice per each group) so that a body weight, a 24 hour-food intake amount, a blood glucose level, and a blood insulin concentration were equal, and diet induced-obesity (DIO) was started to be induced by administration of high fat diet (High Fat Diet 32, energy fat ratio 60%, CLEA Japan, Inc.) (DIO mice). At the same time as the start of administering the high fat diet, (±)-baclofen was dissolved in drinking water and 5 week-continuous oral administration was started in a dosage of 5 mg per 1 kg of a body weight in 1 day (5 mg/kg/day). A food intake amount and a body weight were measured over time during the 5 week-administration period. (±)-baclofen (5 mg/kg/day) was orally administered also to C57BL/6N mice (lean mice) that are non-obese mice to which normal diet was administered in the same manner as described above, and a food intake amount and a body weight were measured over time.\n(§2) 5 week-old male C57BL/6N mice (body weight 17 to 20 g, CLEA Japan, Inc.) were purchased and individually fed in tip cages. Normal pellet diet (CE-2) was administered to the mice under free water intake and free food intake. A body weight and a food intake amount over 24 hours were measured every day from the start of feeding. On day 3 after the start of feeding, blood was taken from an orbit after 6 hour-fasting and a blood glucose level and a blood insulin concentration were measured. The mice were divided into a control group, an SKF97541 treated group and a 3-APPA treated group (10 mice per each group) so that a body weight, a 24 hour-food intake amount, a blood glucose level, and a blood insulin concentration were equal, and diet induced-obesity (DIO) was started to be induced by administration of high fat diet (High Fat Diet 32, energy fat ratio 60%, CLEA Japan, Inc.) (DIO mice). At the same time as the start of administering the high fat diet, SKF97541 (0.3 mg/kg/day) or 3-APPA (5 mg/kg/day) was dissolved in drinking water and 5 week-continuous oral administration was started. A food intake amount and a body weight were measured over time during the 5 week-administration period. SKF97541 (0.3 mg/kg/day) or 3-APPA (5 mg/kg/day) was orally administered also to C57BL/6N mice (lean mice) to which normal diet was administered in the same manner as described above, and a food intake amount and a body weight were measured over time."}, "lean mice": {"tested_on": "lean mice", "experiment": "Food intake amount and body weight, 5 week-continuous oral administration, non-obese lean mice", "settings": "lean mice (normal diet); oral 5 weeks; (±)-baclofen 5 mg/kg/day, SKF97541 0.3 mg/kg/day, 3-APPA 5 mg/kg/day", "procedure": "as §1, §2"}, "DIO mice [2]": {"tested_on": "DIO mice", "experiment": "Fasting blood glucose, HbA1c, blood insulin, plasma leptin and adiponectin after 5-week administration, DIO mice", "settings": "(±)-baclofen 5, SKF97541 0.3, 3-APPA 5 mg/kg/day, vs control; for fasting blood glucose level / fasting blood insulin concentration: 6 hour-fasting after 5 weeks oral; for HbA1c value: after 5 weeks oral", "procedure": "The blood glucose level was measured by a glucose analyzer Antisense (HORIBA, Ltd.) promptly after taking blood from an orbit. HbA1c was measured by a glycohemoglobin analyzer HLC-723 GHbV (manufactured by TOSOH Corporation) after preserving blood at −80° C.\nAfter taking blood from an orbit by using a hematocrit tube coated with heparin, blood was centrifuged at 3500 rpm at 4° C. for 15 minutes, and plasma was preserved at −80° C. The plasma concentrations of insulin, leptin and adiponectin were measured by the ELISA method (levis insulin kit (mouse): Shibayagi Co., Ltd., Morinaga Leptin assay kit: Morinaga Institute of Biological Science, Inc., Mouse/rat adiponectin ELISA kit: OTSUKA Pharmaceutical Co., Ltd.).\n(±)-baclofen (5 mg/kg/day), SKF97541 (0.3 mg/kg/day) or 3-APPA (5 mg/kg/day) was orally administered to DIO mice for 5 weeks according to the above described method, and then blood was taken from an orbit after 6 hour-fasting and a blood glucose level, an HbA1c value and a blood insulin concentration were measured.\n(±)-baclofen (5 mg/kg/day) was orally administered to DIO mice for 5 weeks according to the above described method, and then, blood was taken from an orbit after 6 hour-fasting, and a plasma leptin concentration and a plasma adiponectin concentration were measured. The DIO mice were sacrificed by cervical luxation after the end of the 5-week administration, and then epididymal white adipose tissues and subcutaneous white adipose tissues were surgically removed, and after measuring the weights, they were fixed in 4% formaldehyde. The epididymal white adipose tissues were cut out to prepare a section with a thickness of 8 μm and subjected to Hematoxylin-Eosin stain (H-E stain) and a form (size) of a fat cell was examined by using an image analysis system, Neurolucida (MicroBrightField Japan, Inc.)."}, "db/db mice": {"tested_on": "db/db mice", "experiment": "Food intake amount and body weight, 5 week-continuous oral administration in drinking water, db/db mice", "settings": "SKF97541 10×10^−6 M, 3-APPA 100×10^−6 M in drinking water; for time after start of administration from which body weight increase suppression was significant / time after start of administration from which cumulative food intake suppression was significant: continued until end of experiment; for body weight increase / cumulative food intake amount: oral, 5 weeks"}}}
{"smiles": "CP(=O)(O)CCCN", "note": "[SKF97541, 3-aminopropyl-(methyl)phosphinic acid]", "values": [{"measurement": "body weight", "setting": "db/^+m mice", "value": "did not give significant effects"}, {"measurement": "food intake amount", "setting": "db/^+m mice", "value": "did not give significant effects"}, {"measurement": "body weight increase", "setting": "DIO mice [1]", "value": "significantly suppressed"}, {"measurement": "food intake amount", "setting": "DIO mice [1]", "value": "significantly suppressed"}, {"measurement": "time after start of administration from which body weight increase suppression was significant", "setting": "DIO mice [1]", "value": 1, "unit": "week"}, {"measurement": "time after start of administration from which food intake suppression was significant", "setting": "DIO mice [1]", "value": 1, "unit": "week"}, {"measurement": "body weight", "setting": "lean mice", "value": "did not give significant effects"}, {"measurement": "food intake amount", "setting": "lean mice", "value": "did not give significant effects"}, {"measurement": "fasting blood glucose level", "setting": "DIO mice [2]", "value": "significant decreases"}, {"measurement": "fasting blood insulin concentration", "setting": "DIO mice [2]", "value": "significant decreases"}, {"measurement": "HbA1c value", "setting": "DIO mice [2]", "value": "significant decreases"}, {"measurement": "time after start of administration from which body weight increase suppression was significant", "setting": "db/db mice", "value": 1, "unit": "week"}, {"measurement": "time after start of administration from which cumulative food intake suppression was significant", "setting": "db/db mice", "value": 2, "unit": "weeks"}, {"measurement": "body weight increase", "setting": "db/db mice", "value": "significantly suppressed"}, {"measurement": "cumulative food intake amount", "setting": "db/db mice", "value": "significantly suppressed"}]}
{"smiles": "NCCCP(=O)(O)O", "note": "[3-APPA, 3-aminopropylphosphonic acid]", "values": [{"measurement": "body weight", "setting": "db/^+m mice", "value": "did not give significant effects"}, {"measurement": "food intake amount", "setting": "db/^+m mice", "value": "did not give significant effects"}, {"measurement": "body weight increase", "setting": "DIO mice [1]", "value": "significantly suppressed"}, {"measurement": "food intake amount", "setting": "DIO mice [1]", "value": "significantly suppressed"}, {"measurement": "time after start of administration from which body weight increase suppression was significant", "setting": "DIO mice [1]", "value": 1, "unit": "week"}, {"measurement": "time after start of administration from which food intake suppression was significant", "setting": "DIO mice [1]", "value": 1, "unit": "week"}, {"measurement": "body weight", "setting": "lean mice", "value": "did not give significant effects"}, {"measurement": "food intake amount", "setting": "lean mice", "value": "did not give significant effects"}, {"measurement": "fasting blood glucose level", "setting": "DIO mice [2]", "value": "significant decreases"}, {"measurement": "fasting blood insulin concentration", "setting": "DIO mice [2]", "value": "significant decreases"}, {"measurement": "HbA1c value", "setting": "DIO mice [2]", "value": "significant decreases"}, {"measurement": "time after start of administration from which body weight increase suppression was significant", "setting": "db/db mice", "value": 1, "unit": "week"}, {"measurement": "time after start of administration from which cumulative food intake suppression was significant", "setting": "db/db mice", "value": 1, "unit": "weeks"}, {"measurement": "body weight increase", "setting": "db/db mice", "value": "significantly suppressed"}, {"measurement": "cumulative food intake amount", "setting": "db/db mice", "value": "significantly suppressed"}]}
